Measurements: ChEMBL document CHEMBL1201862, “PubChem BioAssay data set” (2004)
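Test compounds were applied to cells in 96-well plates for 48 hours at 5 doses. GI50 marks 50% less growth.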 Activity calls are given as the source filed them. Cut-off read from the data, not from the text of the source: active = GI50 up to about 1.1 µM and inactive = higher.

Tests used:
Assay in all cases: NCI tumour cell line growth inhibition, 48 h
SF-539 = test system: SF-539
SF-295 = test system: SF-295
SNB-19 = test system: SNB-19
MOLT-4 = test system: MOLT-4
NCI-H460 = test system: NCI-H460
SW-620 = test system: SW-620
SK-MEL-2 = test system: SK-MEL-2
HT-29 = test system: HT-29
UO-31 = test system: UO-31
RPMI-8226 = test system: RPMI-8226
SF-268 = test system: SF-268
HOP-62 = test system: HOP-62
NCI-H226 = test system: NCI-H226
HCT-116 = test system: HCT-116
HL-60 = test system: HL-60

Measured: GI50

CCc1cccc(C(C)CC)c1NC(=O)CC1C(=O)Nc2ccccc2S1(=O)=O (centres undefined)
inactive: SF-539 21.5 µM | SF-295 25.1 µM | SNB-19 13.4 µM | MOLT-4 11.8 µM | NCI-H460 23.9 µM | SW-620 8.61 µM | SK-MEL-2 64.6 µM | HT-29 15.2 µM | UO-31 34 µM | RPMI-8226 5.38 µM | SF-268 25.8 µM | HOP-62 36.8 µM

CCOc1nc(OCC)nc(-c2cccn2-c2ccccc2)n1
inactive: SF-539 51.5 µM | SF-295 33.7 µM | SNB-19 31.4 µM | NCI-H226 32.7 µM | MOLT-4 17.7 µM | HCT-116 37.3 µM | NCI-H460 29 µM | SW-620 50.4 µM | SK-MEL-2 34.8 µM | HT-29 34.6 µM | UO-31 22.1 µM | SF-268 46.5 µM | HOP-62 46.1 µM | HL-60 21.7 µM

C=CCNC(=S)OCCCCCCCCCC
inactive: SF-539 19 µM | SF-295 19.1 µM | SNB-19 30.8 µM | MOLT-4 13.9 µM | HCT-116 16.9 µM | NCI-H460 17.6 µM | SW-620 18.7 µM | SK-MEL-2 12.3 µM | HT-29 18.6 µM | UO-31 12.3 µM | RPMI-8226 18.8 µM | SF-268 19.5 µM | HOP-62 21.7 µM | HL-60 16.4 µM

CC(=O)OCC1OC(N=[N+]=[N-])C(OC(C)=O)C(OC(C)=O)C1OC1OC(COC(C)=O)C(OC(C)=O)C(OC(C)=O)C1OC(C)=O (centres undefined)
inactive: SF-539 58.6 µM | SF-295 > 100 µM | SNB-19 64.1 µM | MOLT-4 > 100 µM | NCI-H460 > 100 µM | SW-620 > 100 µM | SK-MEL-2 > 100 µM | HT-29 > 100 µM | UO-31 > 100 µM | RPMI-8226 > 100 µM | SF-268 > 100 µM | HL-60 > 100 µM

CN1CCc2c1nc(-c1ccccc1)c1c2N(C)CC1
inactive: SF-539 60.8 µM | SF-295 30.1 µM | SNB-19 90.4 µM | MOLT-4 38.1 µM | HCT-116 28.1 µM | NCI-H460 71.1 µM | SW-620 86.9 µM | SK-MEL-2 > 100 µM | HT-29 31.1 µM | UO-31 14.7 µM | RPMI-8226 39.6 µM | SF-268 > 100 µM | HOP-62 43.8 µM | HL-60 31 µM

CCCCCCCCCCCCCCCCCCCCCCC(=O)N[C@H]1CCc2cc(OC)c(OC)c(OC)c2-c2ccc(SC)c(=O)cc21
inactive: SF-539 17.6 µM | SF-295 34.6 µM | SNB-19 39.1 µM | NCI-H226 2.52 µM | MOLT-4 27 µM | HCT-116 26 µM | NCI-H460 28.4 µM | SW-620 30.3 µM | HT-29 30.6 µM | UO-31 48 µM | SF-268 59.7 µM | HOP-62 16.1 µM | HL-60 17.1 µM
